According to paper PMC4738272 (Scientific Reports, 2016):
“And” between values parts separate entries of the source, which are not always exact repeats. Identical values can stand only once. “Also recorded” adds a separate entry of the source.

What was measured:
[1] = cited from earlier work
neuron = system: neuron; parameters: method as in PMID 17298386; conditions: 1uM DOX for 24 hours; read-out: Neuron viability drop; cited from earlier work
HepG2/C3A [2] = experiment: MTT viability of liver module in 4-organ system; assay type: cell-based, human; conditions: 4-organ co-culture under flow, serum-free medium, 48 h drug treatment, day 7, vs control, DOX 5 μM, ATR 100 μM, VPA 2 mM, APAP 5 mM, AMAP 5 mM
Description: (§1) The four organ in vitro systems were assembled, on day 0, by placing the corresponding surfaces cell side up in a specific chamber of the housing (liver coverslip into chamber 1, cardiac coverslips and cantilevers into chambers 2 and 4, muscle coverslips into chamber 5, and neuron coverslips into chamber 3 and they were then topped with the serum-free co-culture medium (1X Neurobasal Medium, 1X B27, 1X AB/AM, 1X Glutamax (all from Life Technologies)) before locking the system. Right after assembling, the medium was completely replaced with 4 mL of the co-culture defined serum-free medium and the systems placed on a rocking platform inside an incubator. Platforms were checked every day by inspecting for expected cell morphology inside the system and by replacing medium (1.2 mL total volume) from the two reservoirs (30% of the total volume was replaced) with fresh medium. Drug incubation was initiated on day 5 of the co-culture by addition of the drug through the reservoir closer to the liver chamber (no. 1), allowing a first contact of the drug with the liver. 20 μL of the drug stock solution (or vehicle) to achieve a working concentration in 4 mL of total volume in the platform was utilized. On day 6, after 24 hours of drug incubation, 6 μL of the drug stock solution (or vehicle) was added to the fresh medium exchange volume (1.2 mL). After 48 hour of drug incubation, on day 7, systems were disassembled to test organ functionality that same day. For mono-culture conditions, surfaces remained in a 12-well plated with 1 mL of the co-culture defined serum-free medium maintained by daily replacement of half volume.
(§2) Seven days after the initiation of the co-culture, viability of each organ chamber, except for neurons, was evaluated through an MTT assay. […] Cell viability was measured at 570 nm in a Synergy HT plate reader and KC4 software. The results were expressed as the percentage of cell survival relative to the control (untreated or incubated with vehicle). The neuronal fraction viability was evaluated through morphological analysis throughout the co-culture experiment as the final coverslips were used for patch-clamp electrophysiology. Phase images (10X) where obtained every day of the co-culture. Neuronal viability was evaluated by cell morphology integrity and by cell count from day 1 to day 14.

neurons [3] = experiment: Neuronal viability by morphological analysis and cell count in 4-organ system; conditions: 4-organ co-culture under flow, serum-free medium, 48 h drug treatment, day 7, vs control, DOX 5 μM, ATR 100 μM, VPA 2 mM, APAP 5 mM, AMAP 5 mM
Description: as §1, §2

Neurons [4] = system: Neurons; parameters: method as in Literature; conditions: general toxic effects reported in the literature; ref Literature; cited from earlier work
Cardiomyocytes = system: Cardiomyocytes; parameters: method as in Literature; conditions: general toxic effects reported in the literature; ref Literature; cited from earlier work
[5] = system: iPSc differentiated Cardiomyocytes; experiment: MTT viability of cardiac module in 4-organ system; conditions: 4-organ co-culture under flow, serum-free medium, 48 h drug treatment, day 7, vs control, DOX 5 μM, ATR 100 μM, VPA 2 mM, APAP 5 mM, AMAP 5 mM
Description: as §1, §2

[6] = system: iPSc differentiated Cardiomyocytes; experiment: Cardiac beating frequency from video recordings; assay type: cell-based, human; conditions: 4-organ co-culture under flow, 48 h drug treatment, day 7, vs control; for Cardiomyocyte beating rate (beat frequency), decrease: DOX 5 μM, AMAP 5 mM; for Cardiomyocyte beating rate (beat frequency), increase: ATR 100 μM, VPA 2 mM, APAP 5 mM
Experimental: Seven or fourteen days after the co-culture, cardiac beating frequency was quantified from video recordings of three different areas of each of the cMEA surfaces, where the cardiomyocytes culture where located. Surfaces were located in a 37 °C bath platform containing co-culture medium with 50 mM HEPES on the stage of a Zeiss Axioscope 2FS upright microscope. Beats were counted in a period of 10 s, and the average number of 3 values was obtained. Drug effect was plotted as percentage of change compared to the control conditions.

HepG2/C3A [7] = experiment: Human Serum Albumin quantification (ELISA), liver fraction of 4-organ system; assay type: cell-based; conditions: 4-organ co-culture under flow, 48 h drug treatment, vs control, DOX 5 μM, ATR 100 μM, VPA 2 mM, APAP 5 mM, AMAP 5 mM
Experimental: Human Serum Albumin (HSA) production from the liver fraction was tracked throughout the co-culture, by measuring the HSA concentration in the supernatant of the culture as it represents liver protein anabolism. Samples were collected from the exchanged medium (1.2 mL) and stored at −20 °C until analysis. One freeze-thaw cycle occurred before samples were analyzed following manufacturers’ instructions provided in the ELISA Starter Accessory Kit (Bethyl Laboratories Inc, Cat #: E101). Samples were diluted as necessary in sample conjugate/diluent buffer to ensure readings measured within the range of the standard curve. The standard curve was prepared by serial dilutions of human reference serum in sample conjugate/diluent buffer (0–1600 ng/ml).
Final HSA concentrations were calculated in an excel file by first removing the average OD reading measured for blanks from average sample and standard OD readings. Concentrations of standard dilutions were plotted against average OD values measured in XY scatter plots. A standard curve was created by adding an order of 2 polynomial trendline to XY scatter plots and selecting the option to display the equation of the trendline, as well as the R^2 value, on each scatter plot (for ease of analysis HSA sigmoidal curves were split into 3 standard curves with HSA concentration ranges of 0–200 ng/ml, 200–800 ng/ml and […]). Quadratic equations were rearranged to make X (sample HSA concentration) the unknown variant. Y values (OD values) and a/b/c constants generated from trendline equations were inputted into rearranged quadratic equations per assay. HSA concentrations calculated were corrected accordingly for any differences in culture final volumes, sample dilutions during assays and cells number.

Liver [8] = system: Liver; parameters: method as in Literature; conditions: general toxic effects reported in the literature; ref Literature; cited from earlier work
HepG2/C3A [9] = experiment: Urea quantification, liver fraction of 4-organ system; assay type: cell-based, human; conditions: 4-organ co-culture under flow, 48 h drug treatment, vs control, DOX 5 μM, ATR 100 μM, APAP 5 mM, AMAP 5 mM
neurons [10] = experiment: Neuron electrophysiology recording (patch clamp); assay type: cell-based, human; conditions: 4-organ co-culture under flow, 48 h drug treatment, day 7, vs control, DOX 5 μM, ATR 100 μM; for Neuronal ion currents and firing of stimulated action potentials / Neuronal repetitive and spontaneous firing ability / Neuronal electrophysiology, overall effect: APAP 5 mM; for Neuronal repetitive and spontaneous firing ability / Neuronal electrophysiology, overall effect: AMAP 5 mM; for Neuronal electrophysiology, overall effect: VPA 2 mM
Description: Electrophysiological properties of neuron cultures where recorded on the last day of co-culture following a previously described method. Values of firing, repetitive firing, spontaneous firing, inward sodium current, outward potassium current, action potential peak voltage and the resting membrane potential, characterized the mature functionality of neurons in the in vitro system. Drug alterations of the neuronal electrophysiology are discussed in this manuscript.

Human Skeletal Myofibers [11] = experiment: Myotube stimulated contraction (binary: contracting or not); assay type: cell-based; conditions: 4-organ co-culture under flow, 48 h drug treatment, day 7, broad-field electrical stimulation, DOX 5 μM, ATR 100 μM, VPA 2 mM, APAP 5 mM, AMAP 5 mM
Experimental: Myotube contraction in coverslips was evaluated after the co-culture was finalized. Individual surfaces were evaluated as previously reported in the group. Drugs effects were quantify in a binary code mode, cells were or were not contracting.

Muscle = system: Muscle; parameters: method as in Literature; conditions: general toxic effects reported in the literature; ref Literature; cited from earlier work
liver [12] = conditions: patients undergoing DOX treatment; cited from earlier work
skeletal muscle cells = experiment: Bright-field imaging of skeletal muscle morphology in 4-organ system; assay type: cell-based, human; conditions: 4-organ co-culture under flow, DOX 5 μM, 48 h
Description: Cell morphology and function were studied each day with an inverted bright-field microscope (Carl Zeiss) using a 10X objective. This working distance allowed the imaging of the cells in the specific surfaces inside the housing. Images of each fraction and systems were collected with an Axio Cam and AxioVision AC software to study morphological or functional changes in the co-culture chamber for each organ.

Human Skeletal Myofibers [13] = experiment: MTT viability of skeletal muscle module in 4-organ system; conditions: 4-organ co-culture under flow, serum-free medium, 48 h drug treatment, day 7, vs control, DOX 5 μM, ATR 100 μM, VPA 2 mM, APAP 5 mM, AMAP 5 mM
Description: as §1, §2

CYP3A4 = experiment: Cytochrome p450 3A4 enzymatic activity in liver mono-culture; assay type: cell-based, human; conditions: ATR 100 μM, 48 hour incubation, data not shown
Experimental: Enzymatic products from 1A1 were run with LDR, and separately, 3A4 were run with LDR containing esterases. Enzymatic activities were finally represented as D-Luciferin picomoles produce in 1 hour by 1 × 10^6 cells.

Structure (SMILES)	Neuronal cell viability, loss (cell loss by morphology/cell count) (neurons [3])	Drug effects on cell functionality, Neurons, Literature (Neurons [4])	Drug effects on cell viability, Neurons, Literature (Neurons [4])	Drug effects on cell functionality, Cardiomyocytes, Literature (Cardiomyocytes)	Drug effects on cell viability, Cardiomyocytes, Literature (Cardiomyocytes)	Cardiomyocyte viability, loss [5]	HSA (albumin) production, increase (HepG2/C3A [7])	Drug effects on cell functionality, Liver, Literature (Liver [8])	Drug effects on cell viability, Liver, Literature (Liver [8])	Neuronal action potential peak voltage and resting membrane potential (DOX also peak ionic currents) (neurons [10])	Neuronal electrophysiology, overall effect (neurons [10])	Skeletal muscle loss of contractile ability (share of cultures in which contraction ceased) (Human Skeletal Myofibers [11])	Drug effects on cell functionality, Muscle, Literature (Muscle)	Drug effects on cell viability, Muscle, Literature (Muscle)	Skeletal muscle viability, loss (Human Skeletal Myofibers [13])	also measured
COc1cccc2c1C(=O)c1c(O)c3c(c(O)c1C2=O)C[C@@](O)(C(=O)CO)C[C@@H]3O[C@H]1C[C@H](N)[C@H](O)[C@H](C)O1 [Doxorubicin]	33 ± 13% loss of cell viability	Neurologic disturbances ( ^**)	Neurologic disturbances ( ^**)	Compromised	Toxicity reported	65 ± 6% loss	HSA and Urea not affected( ^*)	May be compromised	Toxicity reported	not significantly different	Electrophysiology affected	60% loss of contractile ability	Toxicity at higher concentrations	Toxicity at higher concentrations	Toxicity not observed	Patient plasma concentrations typically detected ([1]; patients): 0.5 to 1 µM; Concentration in mitochondria relative to plasma levels ([1]; typically): 100 times; cytotoxicity (neuron): 25%; Liver (hepatocyte) cell viability, loss (HepG2/C3A [2]): 49 ± 10% loss; Liver (hepatocyte) cell viability, loss (HepG2/C3A [2]; listed as DOX): 49 ± 10%; Neuronal cell viability, loss (cell loss by morphology/cell count) (neurons [3]; listed as DOX): 33 ± 18% and 33 ± 13%; Cardiomyocyte viability, loss ([5]; listed as DOX): 65 ± 6%; Cardiomyocyte beating rate (beat frequency), decrease [6]: 47 ± 9% decrease in beating rate; Cardiomyocyte beating rate (beat frequency), decrease ([6]; listed as DOX): 47 ± 9%; HSA (albumin) production, increase (HepG2/C3A [7]; listed as DOX): No effects; Urea production, increase (HepG2/C3A [9]): HSA and Urea not affected( ^*); Urea production, increase (HepG2/C3A [9]; listed as DOX): No effects; Neuronal ion currents and firing of stimulated action potentials (neurons [10]): no changes; Neuronal repetitive and spontaneous firing ability (neurons [10]; listed as DOX): not observed after treatment; Skeletal muscle loss of contractile ability (share of cultures in which contraction ceased) (Human Skeletal Myofibers [11]; listed as DOX): 60%; Patients undergoing treatment that show hepatotoxicity (liver [12]): 40%; Muscle morphology (skeletal muscle cells): not affected
CC(C)c1c(C(=O)Nc2ccccc2)c(-c2ccccc2)c(-c2ccc(F)cc2)n1CC[C@@H](O)C[C@@H](O)CC(=O)O [Atorvastatin]	47 ± 14% loss of cell viability	Toxic at higher concentration( ^**)	Toxic at higher concentration( ^**)	Cardio-protective effect	Cardio-protective effect	No toxic effect observed	not affected	May be compromised	Toxicity reported	changes	Electrophysiology affected	50% loss of contractile ability	Compromised	Toxicity reported	30 ± 15% loss	Neuronal cell viability, loss (cell loss by morphology/cell count) (neurons [3]; listed as ATR): 47 ± 14% and 47 ± 16%; Cardiomyocyte viability, loss ([5]; listed as ATR): no reduction; CYP3A4 activity induction (CYP3A4): 12 fold; Cardiomyocyte beating rate (beat frequency), increase [6]: 43 ± 16% increase in beating rate; Cardiomyocyte beating rate (beat frequency), increase ([6]; listed as ATR): 43 ± 16%; HSA (albumin) production, increase (HepG2/C3A [7]; listed as ATR): no change; Neuronal repetitive and spontaneous firing ability (neurons [10]; listed as ATR): altered ability; also recorded: no repetitively firing cells were observed; Neuronal ion currents and firing of stimulated action potentials (neurons [10]; listed as ATR): typical ion currents and stimulated firing APs; also recorded: regular AP activity was recorded with good sodium and potassium currents; Skeletal muscle loss of contractile ability (share of cultures in which contraction ceased) (Human Skeletal Myofibers [11]; listed as ATR): 50%; Skeletal muscle viability, loss (Human Skeletal Myofibers [13]; listed as ATR): 30 ± 15%
